Key:
animals = details: in vivo
Text: The toxicological profile of the Cupuassuamido propyl betaine was compared to Cocamido propyl betaine.

Procedure for Red Blood Cell: The Red Blood Cell Test (RBC) was carried out with the combination of Sodium Lauryl Ether Sulfate (SLES) and Cupuassuamido Propyl Betaine (CupAPB) or Sodium Lauryl Ether Sulfate (SLES) and Cocamido Propyl Betaine (CAPB) in different concentrations.

Substance | Cumulative Dermic Irritation (animals) | Ocular Irritability (animals) | Primary Dermic Irritation (animals) | H/O (Red Blood Cell) | hemolysis (H) (Red Blood Cell) | oxidation (O) (Red Blood Cell)
Cocamido propyl betaine | Moderately irritating | Moderately irritating | Minimum irritating | – | – | –
Sodium Laureth Sulfate [SLES (7.10%)] | – | – | – | 17.1 | 275.0 | 16.10
Cupuassuamido propyl betaine | Minimum irritating | Not irritating | Not irritating | – | – | –

— patent US7951842B2, “Use of Cupuassu butter based amphoteric amidoamines as amphoteric surfactants” (Cognis Brasil Ltda., priority 2004, dated 2011)
